Assays:
Format in all cases: in vivo
[1] = system: Veronica persica; test: Pre-emergence herbicide efficacy at 320 g/ha, VERPE; conditions: scored visually after about 3 weeks vs untreated controls, 100% = plants have died
How it was run: (§1)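 Weed seeds were sown in sandy loam, covered with soil, and the soil surface was sprayed with WP- or EC-formulated compound as aqueous suspension/emulsion plus 0.5% additive at 600 L/ha water. Pots stood in a greenhouse; about 3 weeks later efficacy was scored visually as % versus untreated controls (100% = plants dead, 0% = like control).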

[2] = system: Setaria viridis; test: Pre-emergence herbicide efficacy at 80 g/ha, SETVI
From the text: (§2) Unwanted plants/weeds: • ABUTH: Abutilon theophrasti • ALOMY: Alopecurus myosuroides • AMARE: Amaranthus retroflexus • DIGSA: Digitaria sanguinalis • ECHCG: Echinochloa crus-galli • KCHSC: Kochia scoparia • LOLRI: Lolium rigidum • MATIN: Matricaria inodora • POAAN: Poa annua • POLCO: Polygonum convolvulus • SETVI: Setaria viridis • STEME: Stellaria media • VERPE: Veronica persica • VIOTR: Viola tricolor A. Post-Emergence Herbicidal Efficacy at 320 g/ha
(§3) Seeds of monocotyledonous and dicotyledonous weed plants and crop plants were placed in plastic or organic planting pots and covered with soil. The compounds of the invention, formulated in the form of wettable powders (WP) or as emulsion concentrates (EC), were then applied to the surface of the covering soil as aqueous suspension or emulsion with addition of 0.5% additive at a water application rate equivalent to 600 l/ha. After the treatment, the pots were placed in a greenhouse and kept under good growth conditions for the test plants. After about 3 weeks, the efficacy of the preparations was scored visually in comparison with untreated controls as percentages. For example, 100% activity=the plants have died, 0% activity=like control plants.
(§4) Tables D1 to D12 below show the effects of selected compounds of the general formula (I) according to Table 1 on various harmful plants and an application rate corresponding to 80 g/ha, which were obtained by the experimental procedure mentioned above.

[3] = system: Viola tricolor; test: Pre-emergence herbicide efficacy at 80 g/ha, VIOTR
From the text: as §2, §3, §4

[4] = system: Polygonum convolvulus; test: Pre-emergence herbicide efficacy at 80 g/ha, POLCO; conditions: scored visually after about 3 weeks vs untreated controls, 100% = plants have died
From the text: as §2, §3, §4

[5] = system: Echinochloa crus-galli; test: Post-emergence herbicidal efficacy at 320 g/ha, ECHCG; conditions: rated visually after about 3 weeks vs untreated controls, 100% = plants have died
How it was run: (§5)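 Weeds grown from seed in sandy loam in the greenhouse were sprayed at the one-leaf stage, 2 to 3 weeks after sowing. WP or EC formulations were applied as aqueous spray with 0.5% additive at 600 L/ha. Injury was scored visually about 3 weeks later against untreated controls (0% = like control, 100% = dead).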

[6] = system: Abutilon theophrasti; test: Pre-emergence herbicide efficacy at 320 g/ha, ABUTH; conditions: scored visually after about 3 weeks vs untreated controls, 100% = plants have died
From the text: as §2
(§6) Seeds of mono- and dicotyledonous weed plants were placed in plastic pots in sandy loam soil (doubly sown with one species each of mono- or dicotyledonous weed plants per pot) and covered with soil. The compounds of the invention, formulated in the form of wettable powders (WP) or as emulsion concentrates (EC), were then applied to the surface of the covering soil as aqueous suspension or emulsion with addition of 0.5% additive at a water application rate of 600 litres per hectare (converted). After the treatment, the pots were placed in a greenhouse and kept under good growth conditions for the test plants. After about 3 weeks, the efficacy of the preparations was scored visually in comparison with untreated controls as percentages.
(§7) For example, 100% activity=the plants have died, 0% activity=like control plants.
(§8) Tables C1 to C12 below show the effects of selected compounds of the general formula (I) according to Table 1 on various harmful plants and at an application rate corresponding to 320 g/ha, which were obtained by the trial procedure specified above.

[7] = system: Alopecurus myosuroides; test: Post-emergence herbicidal efficacy at 320 g/ha, ALOMY; conditions: rated visually after about 3 weeks vs untreated controls, 100% = plants have died
From the text: as §2
(§9) Seeds of mono- and dicotyledonous weed plants were placed in plastic pots in sandy loam soil (doubly sown with in each case one species of mono- or dicotyledonous weed plants per pot), covered with soil and cultivated in a greenhouse under controlled growth conditions. 2 to 3 weeks after sowing, the test plants were treated at the one-leaf stage. The compounds of the invention, formulated in the form of wettable powders (WP) or as emulsion concentrates (EC), were applied to the green parts of the plants as aqueous suspension or emulsion with addition of 0.5% additive at a water application rate equivalent to 600 litres per hectare. After the test plants had been kept in the greenhouse under optimum growth conditions for about 3 weeks, the activity of the preparations was rated visually in comparison to untreated controls.
as §7
(§10) Tables A1 to A10 below show the effects of selected compounds of the general formula (I) according to Table 1 on various harmful plants and at an application rate corresponding to 320 g/ha, which were obtained by the trial procedure specified above.

[8] = system: Digitaria sanguinalis; test: Pre-emergence herbicide efficacy at 80 g/ha, DIGSA; conditions: scored visually after about 3 weeks vs untreated controls, 100% = plants have died
From the text: as §2, §3, §4

[9] = system: Stellaria media; test: Pre-emergence herbicide efficacy at 320 g/ha, STEME; conditions: scored visually after about 3 weeks vs untreated controls, 100% = plants have died
How it was run: as §1

[10] = system: Setaria viridis; test: Post-emergence herbicidal efficacy at 320 g/ha, SETVI; conditions: rated visually after about 3 weeks vs untreated controls, 100% = plants have died
From the text: as §2, §9, §7, §10

[11] = system: Kochia scoparia; test: Post-emergence herbicidal efficacy at 320 g/ha, KCHSC; conditions: rated visually after about 3 weeks vs untreated controls, 100% = plants have died
How it was run: as §5

[12] = system: Abutilon theophrasti; test: Post-emergence herbicidal efficacy at 320 g/ha, ABUTH; conditions: rated visually after about 3 weeks vs untreated controls, 100% = plants have died
How it was run: as §5

[13] = system: Alopecurus myosuroides; test: Post-emergence herbicidal efficacy at 80 g/ha, ALOMY; conditions: rated visually after about 3 weeks vs untreated controls, 100% = plants have died
From the text: as §2
(§11) Seeds of monocotyledonous and dicotyledonous weeds and crop plants were placed in sandy loam in plastic or organic planting pots, covered with soil and cultivated in a greenhouse under controlled growth conditions. 2 to 3 weeks after sowing, the test plants were treated at the one-leaf stage. The compounds of the invention, formulated in the form of wettable powders (WP) or as emulsion concentrates (EC), were then sprayed onto the green parts of the plants as aqueous suspension or emulsion with addition of 0.5% additive at a water application rate of 600 l/ha (converted). After the test plants had been kept in the greenhouse under optimum growth conditions for about 3 weeks, the activity of the preparations was rated visually in comparison to untreated controls. For example, 100% activity=the plants have died, 0% activity=like control plants.
(§12) Tables B1 to B11 below show the effects of selected compounds of the general formula (I) according to Table 1 on various harmful plants and an application rate corresponding to 80 g/ha, which were obtained by the experimental procedure mentioned above.

[14] = system: Amaranthus retroflexus; test: Post-emergence herbicidal efficacy at 80 g/ha, AMARE; conditions: rated visually after about 3 weeks vs untreated controls, 100% = plants have died
How it was run: (§13)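 Weeds grown from seed in sandy loam under controlled greenhouse conditions were sprayed on green parts at the one-leaf stage, 2 to 3 weeks after sowing. WP or EC formulations were applied in water with 0.5% additive at 600 l/ha. Activity was scored visually about 3 weeks later against untreated controls (0% = like control, 100% = dead).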

[15] = system: Veronica persica; test: Post-emergence herbicidal efficacy at 320 g/ha, VERPE; conditions: rated visually after about 3 weeks vs untreated controls, 100% = plants have died
How it was run: as §5

[16] = system: Veronica persica; test: Post-emergence herbicidal efficacy at 80 g/ha, VERPE; conditions: rated visually after about 3 weeks vs untreated controls, 100% = plants have died
How it was run: as §13

[17] = system: Viola tricolor; test: Post-emergence herbicidal efficacy at 80 g/ha, VIOTR; conditions: rated visually after about 3 weeks vs untreated controls, 100% = plants have died
From the text: as §2, §11, §12

[18] = system: Echinochloa crus-galli; test: Pre-emergence herbicide efficacy at 320 g/ha, ECHCG; conditions: scored visually after about 3 weeks vs untreated controls, 100% = plants have died
From the text: as §2, §6, §7, §8

[19] = system: Kochia scoparia; test: Pre-emergence herbicide efficacy at 320 g/ha, KCHSC; conditions: scored visually after about 3 weeks vs untreated controls, 100% = plants have died
How it was run: as §1

[20] = system: Setaria viridis; test: Pre-emergence herbicide efficacy at 320 g/ha, SETVI; conditions: scored visually after about 3 weeks vs untreated controls, 100% = plants have died
How it was run: as §1

[21] = system: Poa annua; test: Pre-emergence herbicide efficacy at 320 g/ha, POAAN; conditions: scored visually after about 3 weeks vs untreated controls, 100% = plants have died
How it was run: as §1

[22] = system: Stellaria media; test: Post-emergence herbicidal efficacy at 320 g/ha, STEME; conditions: rated visually after about 3 weeks vs untreated controls, 100% = plants have died
How it was run: as §5

[23] = system: Amaranthus retroflexus; test: Post-emergence herbicidal efficacy at 320 g/ha, AMARE; conditions: rated visually after about 3 weeks vs untreated controls, 100% = plants have died
How it was run: as §5

[24] = system: Amaranthus retroflexus; test: Pre-emergence herbicide efficacy at 80 g/ha, AMARE; conditions: scored visually after about 3 weeks vs untreated controls, 100% = plants have died
From the text: as §2, §3, §4

[25] = system: Abutilon theophrasti; test: Post-emergence herbicidal efficacy at 80 g/ha, ABUTH; conditions: rated visually after about 3 weeks vs untreated controls, 100% = plants have died
From the text: as §2, §11, §12

[26] = system: Digitaria sanguinalis; test: Pre-emergence herbicide efficacy at 320 g/ha, DIGSA; conditions: scored visually after about 3 weeks vs untreated controls, 100% = plants have died
How it was run: as §1

[27] = system: Alopecurus myosuroides; test: Pre-emergence herbicide efficacy at 320 g/ha, ALOMY; conditions: scored visually after about 3 weeks vs untreated controls, 100% = plants have died
From the text: as §2, §6, §7, §8

[28] = system: Amaranthus retroflexus; test: Pre-emergence herbicide efficacy at 320 g/ha, AMARE; conditions: scored visually after about 3 weeks vs untreated controls, 100% = plants have died
How it was run: as §1

[29] = system: Lolium rigidum; test: Pre-emergence herbicide efficacy at 320 g/ha, LOLRI; conditions: scored visually after about 3 weeks vs untreated controls, 100% = plants have died
From the text: as §2, §6, §7, §8

Row | SMILES | Pre-emergence efficacy at 320 g/ha against VERPE in % [1] [%] | Post-emergence efficacy at 320 g/ha against ECHCG in % [5] [%] | Pre-emergence efficacy at 320 g/ha against STEME in % [9] [%] | Post-emergence efficacy at 320 g/ha against KCHSC in % [11] [%] | Pre-emergence efficacy at 320 g/ha against KCHSC in % [19] [%] | Pre-emergence efficacy at 320 g/ha against SETVI in % [20] [%] | Pre-emergence efficacy at 320 g/ha against POAAN in % [21] [%] | Post-emergence efficacy at 320 g/ha against AMARE in % [23] [%] | Pre-emergence efficacy at 320 g/ha against DIGSA in % [26] [%] | Pre-emergence efficacy at 320 g/ha against AMARE in % [28] [%] | also measured
1 | Cc1cnc(Nc2cccc(F)c2-c2cc(C(F)F)no2)nc1 [Example 1-36] | 100 | 100 | 100 | 100 | 100 | 100 | 100 | 100 | 100 | 100 | Pre-emergence efficacy against SETVI [2]: 90%; Pre-emergence efficacy against VIOTR [3]: 80%; Pre-emergence efficacy at 80 g/ha against POLCO in % [4]: 90%; Pre-emergence efficacy at 320 g/ha against ABUTH in % [6]: 100%; Post-emergence efficacy at 320 g/ha against ALOMY in % [7]: 100%; Pre-emergence efficacy at 80 g/ha against DIGSA in % [8]: 90%; Post-emergence efficacy at 320 g/ha against SETVI in % [10]: 100%; Post-emergence efficacy at 320 g/ha against ABUTH in % [12]: 100%; Post-emergence efficacy at 80 g/ha against ALOMY in % [13]: 80%; Post-emergence efficacy at 80 g/ha against AMARE in % [14]: 90%; Post-emergence efficacy at 320 g/ha against VERPE in % [15]: 100%; Post-emergence efficacy at 80 g/ha against VERPE in % [16]: 80%; Post-emergence efficacy at 80 g/ha against VIOTR in % [17]: 100%; Pre-emergence efficacy at 320 g/ha against ECHCG in % [18]: 100%; Post-emergence efficacy at 320 g/ha against STEME in % [22]: 100%; Pre-emergence efficacy at 80 g/ha against AMARE in % [24]: 90%; Post-emergence efficacy at 80 g/ha against ABUTH in % [25]: 100%; Pre-emergence efficacy at 320 g/ha against ALOMY in % [27]: 100%
2 | Fc1cnc(Nc2cccc(F)c2-n2cc(C(F)(F)F)cn2)nc1 [Example 1-48] | 100 | 90 | 100 | 90 | 100 | 100 | 100 | 100 | 100 | 100 | Pre-emergence efficacy at 320 g/ha against LOLRI in % [29]: 100%

Reference: patent US20250311727A1, “SUBSTITUTED 2-AMINOAZINES AND SALTS THEREOF, AND USE THEREOF AS HERBICIDAL ACTIVE SUBSTANCES” (BAYER AKTIENGESELLSCHAFT, priority 2022, published 2025)
